Laboratory results from patent publication US20240051956A1, “SOS1 INHIBITORS AND USES THEREOF” (QILU REGOR THERAPEUTICS INC., priority 2020, published 2024).

Columns and labels:
NCI-H358 = assay: Cell proliferation assay, 3D, CellTiter-Glo 3D; assay type: cell-based, human; details: Homo sapiens, 72 h; NCI-H358 (KRAS G12C), 3D ultra-low attachment, 3 days; read-out: anit-prolif. H358 IC50
Protocol: b. Cell Proliferation Assay
Low IC50 values are indicative of high potency of the compounds in this assay setting.
Cell proliferation assay is performed in three-dimensional (3D) ultra-low conditions with the human cell line NCI-H358, a human non-small cell lung cancer (NSCLC) cell line with a KRAS G12C mutation.
• 96-well Clear Round Bottom Ultra-Low Attachment Microplate (Corning, Cat. 7007) • 96-well Flat Clear Bottom White Polystyrene TC-treated Microplates (Corning, Cat. 3610) • RPMI-1640 Medium (Gibco, Cat. 22400105) • Fetal Bovine Serum (FBS) (Gibco, Cat. 10099141C) • 0.25% Trypsin-EDTA (Gibco, Cat. 25200056) • Penicillin-Streptomycin (Gibco, Cat. 15140122) • CellTiter-Glo 3D Cell Viability Assay (Promega, Cat. G9683)
NCI-H358 cells (ATCC, Cat. CRL-5807) are grown in cell culture flasks using RPMI medium supplemented with 10% FBS. Cells are incubated at 37° C. and 5% C02 in a humidified atmosphere, with sub-cultivation performed twice a week. Cells are trypsinized, counted and plated in 96-well ultra-low adhesion plates for 3D cell viability determination. The day after plating, serial dilutions of SOS1 inhibitor compounds are made using Tecan D300e Digital Dispenser to evaluate a concentration-dependent effect on cell viability. The concentration of the test compounds covers a range between 5 μM and 0.76 nM with serial 1:3 dilutions in 9 concentrations. 0.5 μL serial dilutions of the compounds are added in duplicates. 3 days later, the CellTiter-Glo 3D Cell Viability Assay is used to measure cell viability effects of SOS1 inhibitor compounds in 3D format. Luminescent intensity is determined using Envision (PerkinElmer). Data is analyzed and IC50 values are calculated using GraphPad Prism.

SOS1 and KRAS G12D = SOS1 and KRAS G12D (Homo sapiens (Human), UniProt Q07889); assay: KRAS::SOS1 AlphaScreen Binding Assay; details: SOS1 (564-1049), KRAS G12D (1-169), GDP
Excerpt: a. KRAS::SOS1 AlphaScreen Binding Assay
Low IC50 values of given compounds are indicative of high potency of the SOS1 inhibitor compounds in this assay setting.
• GST-TEV-SOS1 (564-1049) and His-TEV-Avi-KRAS G12D (1-169) are purchased from Viva Biotech (Shanghai) Ltd. • GDP (Sigma, Cat. G7127) • AlphaLISA Glutathione Acceptor Beads (PerkinElmer, Cat. AL109C) • AlphaScreen Streptavidin Donor Beads (PerkinElmer, Cat. 6760002S) • Assay plates: ProxiPlate-384 Plus, White 384-shallow well Microplate (PerkinElmer, Cat. 6008280)
SOS1 inhibitor compounds are diluted to a final start concentration of […]. Serial dilutions of compounds are made using Tecan D300e Digital Dispenser in 9 concentrations with serial 1:3 dilutions. 100 nL of compound solution is transferred to the 384-well assay plate per well, covering a range between 1 μM and 0.15 nM minimum in duplicate. 10 nM (final assay concentration) KRAS G12D, 5 nM (final assay concentration) SOS1 and 10 μM (final assay concentration) GDP are mixed in assay buffer, and 5 μL of KRAS::SOS1 GDP mix is added into the assay plate to the 100 nL of compound solution (final dilution in the assay 1:100, final DMSO concentration 1%). After a 30 min incubation, AlphaLISA Glutathione Acceptor Beads and AlphaScreen Streptavidin Donor Beads are mixed in assay buffer at a concentration of 5 µg/mL (final assay concentration), and 5 μL of bead mix is added into the assay plate. Plates are kept at room temperature in a darkened incubator for 3 h. After a 3 h incubation, the signal is determined using Envision (PerkinElmer). The excitation wavelength is 680 nm, and emission 615 nm. IC50 values are calculated and analyzed using GraphPad Prism.

Chain of SOS1 and KRAS G12D (Q07889 564-1049, stated change not applied): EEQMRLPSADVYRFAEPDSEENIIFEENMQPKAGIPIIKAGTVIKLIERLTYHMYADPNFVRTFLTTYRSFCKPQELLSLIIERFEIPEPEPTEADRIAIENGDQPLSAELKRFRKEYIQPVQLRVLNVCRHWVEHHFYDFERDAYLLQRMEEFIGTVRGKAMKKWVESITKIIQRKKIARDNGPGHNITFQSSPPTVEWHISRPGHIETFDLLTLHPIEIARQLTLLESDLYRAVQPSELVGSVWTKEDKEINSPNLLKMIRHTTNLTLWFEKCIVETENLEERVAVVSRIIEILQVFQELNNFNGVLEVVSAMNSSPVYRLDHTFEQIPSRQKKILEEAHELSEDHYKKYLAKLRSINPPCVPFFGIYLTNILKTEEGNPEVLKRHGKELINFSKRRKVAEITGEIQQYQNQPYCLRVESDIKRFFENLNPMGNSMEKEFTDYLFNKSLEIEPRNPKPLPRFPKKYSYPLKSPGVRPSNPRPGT

| Compound | IC50 (NCI-H358) | IC50 (SOS1 and KRAS G12D) |
| --- | --- | --- |
| Cc1nc(N[C@H](C)c2cccc(C(F)F)c2F)c2cn(N3CCCCC3)c(=O)cc2n1 [Example 2] | ≤ 100 nM | ≤ 15 nM |
| Cc1nc(N[C@H](C)c2cccc(C(F)F)c2F)c2cn(N3CCC(F)(F)CC3)c(=O)cc2n1 [Example 3] | 100 to 500 nM | ≤ 15 nM |
| Cc1nc(N[C@H](C)c2cccc(C(F)F)c2F)c2cn(N3CCN(C(=O)OC(C)(C)C)CC3)c(=O)cc2n1 [Example 4] | 100 to 500 nM | 15 to 150 nM |
| Cc1nc(N[C@H](C)c2cccc(C(F)F)c2F)c2cn(N3C[C@@H](C)O[C@@H](C)C3)c(=O)cc2n1 [Example 5] | 100 to 500 nM | ≤ 15 nM |
| Cc1nc(N[C@H](C)c2cccc(C(F)F)c2F)c2cn(N3CCCOCC3)c(=O)cc2n1 [Example 6] | ≤ 100 nM | ≤ 15 nM |
| COC1CCN(n2cc3c(N[C@H](C)c4cccc(C(F)F)c4F)nc(C)nc3cc2=O)CC1 [Example 7] | 100 to 500 nM | ≤ 15 nM |
| Cc1nc(N[C@H](C)c2cccc(C(F)F)c2F)c2cn(N3CC4CC3CO4)c(=O)cc2n1 (some centres unmarked) [Example 8] | 100 to 500 nM | ≤ 15 nM |
| Cc1nc(N[C@H](C)c2cccc(C(F)F)c2F)c2cn(N3CC4(COC4)C3)c(=O)cc2n1 [Example 9] | 100 to 500 nM | ≤ 15 nM |
| Cc1nc(N[C@H](C)c2cccc(C(F)F)c2F)c2cn(N3CCNCC3)c(=O)cc2n1 [Example 10, 4-[[(1R)-1-[3-(difluoromethyl)-2-fluoro-phenyl]ethyl]amino]-2-methyl-6-piperazin-1-yl-pyrido[4,3-d]pyrimidin-7-one] | > 1000 nM | ≤ 15 nM |
| CC(=O)N1CCN(n2cc3c(N[C@H](C)c4cccc(C(F)F)c4F)nc(C)nc3cc2=O)CC1 [Example 11, 6-(4-acetylpiperazin-1-yl)-4-[[(1R)-1-[3-(difluoromethyl)-2-fluoro-phenyl]ethyl]amino]-2-methyl-pyrido[4,3-d]pyrimidin-7-one] | 500 to 1000 nM | ≤ 15 nM |
| Cc1nc(N[C@H](C)c2cccc(C(F)F)c2F)c2cn(N3CCN(C(C)C)CC3)c(=O)cc2n1 [Example 12, 4-[[(1R)-1-[3-(difluoromethyl)-2-fluoro-phenyl]ethyl]amino]-6-(4-isopropylpiperazin-1-yl)-2-methyl-pyrido[4,3-d]pyrimidin-7-one] | 100 to 500 nM | ≤ 15 nM |
| Cc1nc(N[C@H](C)c2cccc(C(F)F)c2F)c2cn(N3CCN(C(=O)CO)CC3)c(=O)cc2n1 [Example 13, 4-[[(1R)-1-[3-(difluoromethyl)-2-fluoro-phenyl]ethyl]amino]-6-[4-(2-hydroxyacetyl)piperazin-1-yl]-2-methyl-pyrido[4,3-d]pyrimidin-7-one] | 500 to 1000 nM | ≤ 15 nM |
| Cc1nc(N[C@H](C)c2cccc(C(F)F)c2F)c2cn(N3CCN(C(=O)CC#N)CC3)c(=O)cc2n1 [Example 14] | 500 to 1000 nM | ≤ 15 nM |
| Cc1nc(N[C@H](C)c2cccc(C(F)F)c2F)c2cn(N3CCN(c4ccc(C#N)cn4)CC3)c(=O)cc2n1 [Example 15, 6-[4-[4-[[(1R)-1-[3-(difluoromethyl)-2-fluoro-phenyl]ethyl]amino]-2-methyl-7-oxo-pyrido[4,3-d]pyrimidin-6-yl]piperazin-1-yl]pyridine-3-carbonitrile] | ≤ 100 nM | 15 to 150 nM |
| Cc1nc(N[C@H](C)c2cc(N)cc(C(F)(F)F)c2)c2cn(N3CCOCC3)c(=O)cc2n1 [Example 16, 4-[[(1R)-1-[3-amino-5-(trifluoromethyl)phenyl]ethyl]amino]-2-methyl-6-morpholino-pyrido[4,3-d]pyrimidin-7-one] | 100 to 500 nM | 15 to 150 nM |
| Cc1nc(N[C@H](C)c2cccc(C(F)(F)CO)c2)c2cn(N3CCOCC3)c(=O)cc2n1 [Example 18] | 500 to 1000 nM | ≤ 15 nM |
| Cc1nc(N[C@H](C)c2cccc(C(F)(F)F)c2F)c2cn(N3CCOCC3)c(=O)cc2n1 [Example 19] | 100 to 500 nM | ≤ 15 nM |
| Cc1nc(N[C@H](C)c2cccc(C(F)(F)F)c2)c2cn(N3CCOCC3)c(=O)cc2n1 [Example 20] | ≤ 100 nM | ≤ 15 nM |
| Cc1nc(N[C@H](C)c2cccc(C(F)F)c2C)c2cn(N3CCOCC3)c(=O)cc2n1 [Example 21] | ≤ 100 nM | ≤ 15 nM |
| Cc1nc(N[C@@H](C)c2cccc(C(F)F)c2C)c2cn(N3CCOCC3)c(=O)cc2n1 [Example 22] | > 1000 nM | 150 to 1000 nM |

| Compound | IC50 (NCI-H358) | IC50 (SOS1 and KRAS G12D) |
| --- | --- | --- |
| Cc1nc(NC(C)C2CC2)c2cn(N3CCOCC3)c(=O)cc2n1 (centres unmarked) [Example 23] | – | > 1000 nM |
| CCC(Nc1nc(C)nc2cc(=O)n(N3CCOCC3)cc12)c1cccc(C(F)(F)F)c1 (centres unmarked) [Example 24] | 100 to 500 nM | 15 to 150 nM |
| Cc1nc(NC(C)c2cccc(C(F)F)c2)c2cn(N3CCOCC3)c(=O)cc2n1 (centres unmarked) [Example 25] | 100 to 500 nM | 15 to 150 nM |
| Cc1nc(NCc2cccc(C(F)(F)F)c2)c2cn(N3CCOCC3)c(=O)cc2n1 [Example 26] | – | 15 to 150 nM |
| Cc1nc(NCc2ccc3cc[nH]c3c2)c2cn(N3CCOCC3)c(=O)cc2n1 [Example 27] | – | > 1000 nM |
| Cc1nc(NC(C)c2cc(C(F)F)cc(C(F)F)c2)c2cn(N3CCOCC3)c(=O)cc2n1 (centres unmarked) [Example 28] | – | 150 to 1000 nM |
| Cc1nc(N[C@H](C)c2cccc(C(F)(F)F)c2F)c2cn(N3CCOCC3)c(=O)c(F)c2n1 [Example 31] | ≤ 100 nM | ≤ 15 nM |
| Cc1nc(N[C@H](C)c2cccc(C(F)(F)CO)c2)c2cn(N3CCOCC3)c(=O)c(F)c2n1 [Example 32] | ≤ 100 nM | ≤ 15 nM |
| Cc1nc(N[C@H](C)c2cccc(C(F)(F)F)c2)c2cn(N3CCOCC3)c(=O)c(F)c2n1 [Example 33] | 100 to 500 nM | ≤ 15 nM |
| Cc1nc(N[C@H](C)c2cccc(C(F)F)c2F)c2cn(N(C)C)c(=O)cc2n1 [Example 34, 4-[[(1R)-1-[3-(difluoromethyl)-2-fluoro-phenyl]ethyl]amino]-6-(dimethylamino)-2-methyl-pyrido[4,3-d]pyrimidin-7-one] | 100 to 500 nM | ≤ 15 nM |
| Cc1nc(N[C@H](C)c2cccc(C(F)F)c2F)c2cn(N3CCOCC3)c(=O)c(-c3ccc(C(=O)O)nc3)c2n1 [Example 78] | – | ≤ 15 nM |
| COC(=O)c1ccc(-c2c(=O)n(N3CCOCC3)cc3c(N[C@H](C)c4cccc(C(F)F)c4F)nc(C)nc23)cn1 [Example 79] | – | ≤ 15 nM |
| Cc1nc(N[C@H](C)c2cccc(C(F)F)c2F)c2cn(N3CCOCC3)c(=O)c(-c3ccc(C(N)=O)nc3)c2n1 [Example 80] | – | ≤ 15 nM |
| Cc1nc(N[C@H](C)c2cccc(C(F)F)c2F)c2cn(N3CCOCC3)c(=O)c(-c3ccn[nH]3)c2n1 [Example 81] | – | ≤ 15 nM |
| Cc1nc(N[C@H](C)c2cccc(C(F)(F)CO)c2)c2cn(N3CCOCC3)c(=O)c(-c3ccc(C#N)nc3)c2n1 [Example 82] | – | ≤ 15 nM |
| Cc1nc(N[C@H](C)c2cc(N)cc(C(F)(F)F)c2)c2cn(N3CCOCC3)c(=O)c(-c3ccc(C#N)nc3)c2n1 [Example 83] | – | ≤ 15 nM |
| Cc1nc(N[C@H](C)c2cccc(C(F)F)c2F)c2cn(N3CCOCC3)c(=O)c(-c3cnc4nccn4c3)c2n1 [Example 84] | – | ≤ 15 nM |
| Cc1nc(N[C@H](C)c2cccc(C(F)F)c2F)c2cn(N3CCOCC3)c(=O)c(C3=CCS(=O)(=O)CC3)c2n1 [Example 85] | – | ≤ 15 nM |
| Cc1nc(N[C@H](C)c2cccc(C(F)F)c2F)c2cn(-n3cnnc3)c(=O)c(F)c2n1 [Example 87] | – | 150 to 1000 nM |
